In patent US20260053811A1, “METHODS OF TREATING HYPERTENSION IN OBESE SUBJECTS” (Mineralys Therapeutics, Inc., priority 2022, published 2026):

Test system: hypertensive subjects
Test: Seated automated office blood pressure (AOBP) in randomized, placebo-controlled, dose-ranging study
Assay type: in vivo, human
Details: Part 1
Method: A randomized, double-blinded, placebo-controlled, dose-ranging, multicenter study was conducted to evaluate the effect of orally administered Compound A HBr on blood pressure for the treatment of hypertension in male and female subjects ≥18 years of age.
The study consists of two parts. For enrollment into Part 1 of the study, a subject's value of plasma renin activity (PRA) must be ≤1 ng/mL/h based on morning measurement. If the value of PRA >1 ng/mL/h based on morning measurement, then subjects may be eligible to enter Part 2 of the study.
For Part 1, 163 enrolled subjects ≥18 years of age were randomized into 6 equal treatment groups (1:1:1:1:1:1) to 12.5 mg BID, 25 mg BID, 12.5 mg QD, 50 mg QD, 100 mg QD, or placebo. After a review of interim clinical data, the 2 lowest dose levels (12.5 mg QD and 12.5 mg BID) were stopped for future randomization due to a lack of consistent meaningful reduction of blood pressure, but the patients randomized to that point remained in the study through completion. Thus, after the review of interim clinical data, subjects were randomized into 4 equal treatment groups (1:1:1:1) to 25 mg BID, 50 mg QD, 100 mg QD, or placebo.
For Part 2, 36 enrolled subjects ≥18 years of age were randomized (5:1) to either 100 mg QD Compound A HBr or placebo such that the Compound A HBr treatment group consisted of approximately 30 subjects and the placebo treatment group will consist of approximately 6 subjects.
Subjects orally administered the assigned study drug (Compound A HBr or placebo) according to the assigned dosing regimen for 8 weeks beginning on Study Day 1. All subjects in Part 1 (regardless of dosing group) received BID dosing to preserve the integrity of the blind; active drug is administered as the morning dose for all QD dose groups. Subjects returned to the research facility or were seen by the clinical investigator or approved home health care professional at the end of Study Weeks 1, 2, 3, 4, 5, 6, 7, and 8 (±2 days) for protocol-defined efficacy and safety assessments and procedures, assessment of adverse events (AEs), and confirmation of compliance with study drug usage. Subjects also completed a telephone visit and blood pressure (BP) check at home approximately 3 days post last dose of study drug. Subjects attended up to 14 full clinic visits, including a pre-Screening visit, a Screening/start of Placebo Run-in visit, a second visit during Placebo Run-in, a clinic visit to initiate the ABPM procedure, a Randomization visit, 8 weekly visits during double-blind treatment, and an end-of-study visit scheduled 4 weeks after the last study treatment for final efficacy and safety assessments.
An automated oscillometric sphygmomanometer device was used to measure the subjects' systolic and diastolic blood pressure in office after approximately 5 minutes of rest in the seated position.
The primary endpoint is the change in office-measured (mean of last 2 of 5 unattended measurements using an automated oscillometric sphygmomanometer device after approximately 5 minutes of rest in the seated position) systolic blood pressure (SBP) from baseline to the end of Study Week 8.
Secondary endpoints of this study were: • (a) Change in 24-hour ambulatory blood pressure monitoring (ABPM) parameters (systolic and diastolic) from baseline to the end of Study Week 7. • (b) Change in office-measured SBP from baseline to the end of Study Weeks 1, 2, 3, 4, 5, 6, and 7. • (c) Change in office-measured diastolic blood pressure (DBP) from baseline to the end of Study Weeks 1, 2, 3, 4, 5, 6, 7, and 8. • (d) Proportion of subjects who achieve office-measured BP of ≤130/80 mm Hg by the end of Study Week 8.

[1] = 12.5 mg BID, Seated SBP Tertile High
[2] = 12.5 mg BID, Seated SBP Tertile Middle
[3] = 12.5 mg BID, Systolic Blood Pressure Tertile at Baseline High
[4] = 12.5 mg BID, Systolic Blood Pressure Tertile at Baseline Low
[5] = 12.5 mg BID, Systolic Blood Pressure Tertile at Baseline Middle
[6] = 12.5 mg BID, Thiazide Diuretic Use at Baseline No
[7] = 12.5 mg BID, Thiazide Diuretic Use at Baseline Yes

With `CC(=O)N[C@H]1CC[C@H](NC(=O)CN2CCN(c3nncc(-c4ccc(C)cc4)n3)CC2)CC1` [Compound A HBr] the “Mean (SD) Change from Baseline at Week 8 in Automated Office-Measured Diastolic Blood Pressure” value (12.5 mg BID, Race Black or AA) was 0.21 (7.03) mmHg, the “Mean (SD) Change from Baseline at Week 8 in Automated Office-Measured Systolic Blood Pressure” value (12.5 mg BID, Race Black or AA) was −7.43 (20.17) mmHg and the “Mean (SD) Automated Office-Measured Diastolic Blood Pressure at Wk 8” value (12.5 mg BID, Race Other) was 72.92 (10.54) mmHg. For the same molecule, the “Mean (SD) Automated Office-Measured Systolic Blood Pressure at Wk 8” value (12.5 mg BID, Race Other) was 128.50 (11.84) mmHg, the “Mean (SD) Change from Baseline at Week 8 in Automated Office-Measured Diastolic Blood Pressure” value (12.5 mg BID, Race Other) was −9.38 (7.89) mmHg and the “Mean (SD) Change from Baseline at Week 8 in Automated Office-Measured Systolic Blood Pressure” value (12.5 mg BID, Race Other) was −17.50 (15.80) mmHg. For the same molecule, the “Mean (SD) Automated Office-Measured Diastolic Blood Pressure at Wk 8” value [1] was 74.86 (11.87) mmHg, the “Mean (SD) Change from Baseline at Week 8 in Automated Office-Measured Diastolic Blood Pressure” value [1] was −6.93 (7.79) mmHg and the “Mean (SD) Automated Office-Measured Diastolic Blood Pressure at Wk 8” value (12.5 mg BID, Seated SBP Tertile Low) was 78.50 (9.88) mmHg. For the same molecule, the “Mean (SD) Automated Office-Measured Diastolic Blood Pressure at Wk 8” value [2] was 73.88 (9.48) mmHg, the “Mean (SD) Change from Baseline at Week 8 in Automated Office-Measured Diastolic Blood Pressure” value [2] was −6.69 (10.60) mmHg and the “Mean (SD) Automated Office-Measured Diastolic Blood Pressure at Wk 8” value (12.5 mg BID, Sex Female) was 74.07 (10.32) mmHg. For the same molecule, the “Mean (SD) Automated Office-Measured Systolic Blood Pressure at Wk 8” value (12.5 mg BID, Sex Female) was 131.00 (14.17) mmHg, the “Mean (SD) Change from Baseline at Week 8 in Automated Office-Measured Diastolic Blood Pressure” value (12.5 mg BID, Sex Female) was −5.25 (9.78) mmHg and the “Mean (SD) Change from Baseline at Week 8 in Automated Office-Measured Systolic Blood Pressure” value (12.5 mg BID, Sex Female) was −12.46 (18.69) mmHg. For the same molecule, the “Mean (SD) Automated Office-Measured Systolic Blood Pressure at Wk 8” value [3] was 131.86 (14.81) mmHg, the “Mean (SD) Change from Baseline at Week 8 in Automated Office-Measured Systolic Blood Pressure” value [3] was −24.93 (18.46) mmHg and the “Mean (SD) Automated Office-Measured Systolic Blood Pressure at Wk 8” value [4] was 132.25 (10.34) mmHg. The “Mean (SD) Change from Baseline at Week 8 in Automated Office-Measured Systolic Blood Pressure” value [4] was −0.75 (5.48) mmHg, the “Mean (SD) Automated Office-Measured Systolic Blood Pressure at Wk 8” value [5] was 131.75 (14.00) mmHg and the “Mean (SD) Change from Baseline at Week 8 in Automated Office-Measured Systolic Blood Pressure” value [5] was −10.56 (16.34) mmHg. For the same molecule, the “Automated Office-Measured Diastolic Blood Pressure, Week 8, Mean (SD)” value [6] was 79.57 (10.75) mmHg, the “Mean (SD) Automated Office-Measured Systolic Blood Pressure at Wk 8” value [6] was 139.29 (13.28) mmHg and the “Mean (SD) Change from Baseline at Week 8 in Automated Office-Measured Diastolic Blood Pressure” value [6] was −3.29 (8.80) mmHg. The “Mean (SD) Change from Baseline at Week 8 in Automated Office-Measured Systolic Blood Pressure” value [6] was −4.43 (15.93) mmHg, the “Automated Office-Measured Diastolic Blood Pressure, Week 8, Mean (SD)” value [7] was 72.67 (9.15) mmHg and the “Mean (SD) Automated Office-Measured Systolic Blood Pressure at Wk 8” value [7] was 127.58 (11.07) mmHg. For the same molecule, the “Mean (SD) Change from Baseline at Week 8 in Automated Office-Measured Diastolic Blood Pressure” value [7] was −7.33 (8.79) mmHg, the “Mean (SD) Change from Baseline at Week 8 in Automated Office-Measured Systolic Blood Pressure” value [7] was −19.25 (16.90) mmHg and the “Mean (SD) Automated Office-Measured Systolic Blood Pressure at Wk 8” value (12.5 mg QD, ACEi/ARB No) was 138.25 (20.45) mmHg. For the same molecule, the “Mean (SD) Change from Baseline at Week 8 in Automated Office-Measured Systolic Blood Pressure” value (12.5 mg QD, ACEi/ARB No) was −8.50 (31.61) mmHg, the “Mean (SD) Automated Office-Measured Systolic Blood Pressure at Wk 8” value (12.5 mg QD, ACEi/ARB Yes) was 141.50 (23.12) mmHg and the “Mean (SD) Change from Baseline at Week 8 in Automated Office-Measured Systolic Blood Pressure” value (12.5 mg QD, ACEi/ARB Yes) was −6.39 (16.84) mmHg. The “Mean (SD) Automated Office-Measured Diastolic Blood Pressure at Wk 8” value (12.5 mg QD, ACEi/ARBs No) was 73.25 (13.50) mmHg, the “Mean (SD) Change from Baseline at Week 8 in Automated Office-Measured Diastolic Blood Pressure” value (12.5 mg QD, ACEi/ARBs No) was −5.50 (11.85) mmHg and the “Mean (SD) Automated Office-Measured Diastolic Blood Pressure at Wk 8” value (12.5 mg QD, ACEi/ARBs Yes) was 83.79 (17.89) mmHg. For the same molecule, the “Mean (SD) Change from Baseline at Week 8 in Automated Office-Measured Diastolic Blood Pressure” value (12.5 mg QD, ACEi/ARBs Yes) was −0.71 (13.94) mmHg, the “Mean (SD) Automated Office-Measured Diastolic Blood Pressure at Wk 8” value (12.5 mg QD, AHTs 2) was 80.80 (18.35) mmHg and the “Mean (SD) Automated Office-Measured Systolic Blood Pressure at Wk 8” value (12.5 mg QD, AHTs 2) was 142.80 (25.41) mmHg. The “Mean (SD) Change from Baseline at Week 8 in Automated Office-Measured Diastolic Blood Pressure” value (12.5 mg QD, AHTs 2) was −4.60 (10.04) mmHg, the “Mean (SD) Change from Baseline at Week 8 in Automated Office-Measured Systolic Blood Pressure” value (12.5 mg QD, AHTs 2) was −9.70 (21.49) mmHg and the “Mean (SD) Automated Office-Measured Diastolic Blood Pressure at Wk 8” value (12.5 mg QD, AHTs ≥3) was 82.25 (16.96) mmHg. The “Mean (SD) Automated Office-Measured Systolic Blood Pressure at Wk 8” value (12.5 mg QD, AHTs ≥3) was 138.25 (18.26) mmHg, the “Mean (SD) Change from Baseline at Week 8 in Automated Office-Measured Diastolic Blood Pressure” value (12.5 mg QD, AHTs ≥3) was 1.75 (16.61) mmHg and the “Mean (SD) Change from Baseline at Week 8 in Automated Office-Measured Systolic Blood Pressure” value (12.5 mg QD, AHTs ≥3) was −3.31 (18.37) mmHg. For the same molecule, the “Mean (SD) Automated Office-Measured Diastolic Blood Pressure at Wk 8” value (12.5 mg QD, Age 65-79 yr) was 77.25 (5.52) mmHg.
